The results in this text go back to US12655145B2, “P2X3 modulators” (GlaxoSmithKline Intellectual Property (No. 3) Limited, priority 2020, dated 2026).

Broadly, the IC50 is the midpoint of a concentration-inhibition curve.

The target in one experiment is T1, P2X3 (Homo sapiens, UniProt P56373).
T1 construct: expressed in transfected cells; host or cells: HEK293
T1 sequence (P56373 1-397): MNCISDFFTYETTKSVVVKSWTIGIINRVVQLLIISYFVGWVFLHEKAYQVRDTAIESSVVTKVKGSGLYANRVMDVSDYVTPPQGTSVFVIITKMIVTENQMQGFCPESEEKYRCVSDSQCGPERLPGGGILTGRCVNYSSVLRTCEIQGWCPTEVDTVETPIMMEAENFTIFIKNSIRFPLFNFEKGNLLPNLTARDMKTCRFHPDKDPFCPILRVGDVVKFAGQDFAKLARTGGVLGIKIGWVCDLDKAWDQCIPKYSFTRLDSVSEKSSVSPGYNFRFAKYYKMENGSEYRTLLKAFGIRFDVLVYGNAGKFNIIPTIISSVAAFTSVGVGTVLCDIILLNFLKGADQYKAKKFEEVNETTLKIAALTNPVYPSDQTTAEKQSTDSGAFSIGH
Description: P2X3 Antagonist Assay (FLIPR calcium, Fluo-8, HEK293 cells transfected with human ion channel cDNAs, αβ-meATP stimulation). It is filed as cell-based. The note with it: @ 1 μM, antagonist mode, αβ-meATP 3 μM. On the procedure:
Example 59: P2X3 Antagonist Assay
HEK293 were transiently or stably transfected with human ion channel cDNAs as indicated in section 1. Stable transfectants were selected by coexpression with the antibiotic-resistance gene(s) incorporated into the expression plasmid(s). Selection pressure was maintained by including selection antibiotics in the culture medium. HEK293 cells were cultured in Dulbecco's Modified Eagle Medium/Nutrient Mixture F-12 (D-MEM/F-12) supplemented with 10% fetal bovine serum, 100 U/mL penicillin G sodium, 100 J·Lg/mL streptomycin sulfate and appropriate selection antibiotics.
The effect of each test article to act as an antagonist was evaluated. Each test article was evaluated at eight (8) concentrations (0.001, 0.003, 0.01, 0.03, 0.1, 0.3, 1 and 3 μM, n=3) with 4 replicates for each concentration. Experiments were performed with the FLIPR calcium sensitive dye kit (Fluo-8 dye, AAT, Bioquest) according to the manufacturer's instructions. • Dye-loading: Growth media will be removed and add 20 μL of Mg^++-free HBPS containing Fluo-8 for 30 min at 37° C. • Preincubation (FLIPR step 1): Adding 5× (5 μL) test, vehicle, or control article solutions in Mg^+-free HBPS to each well for 20 minutes at room temperature, protected from light. • Stimulation (FLIPR step 2): After pre-incubation, cells will be stimulated with 6× (5 μL) αβ-meATP at final concentration of 3 μM prepared in Mg^++-free HBPS. • Non-Specific Calcium Influx (FLIPR step 3): 5 minutes after stimulation solution addition, non-specific calcium influx will be activated by adding 7×(5 μL) ionomycin at a final concentration of 5 μM. Fluorescence will be recorded continuously during FLIPR steps 2 and 3. • Positive Control Antagonist: PPADS (1 mM).
Data acquisition was performed via the FLIPRControl software that is supplied with the FLIPR System (MDS-AT) and data was analyzed using Microsoft Excel2003 (Microsoft Corp., Redmond, WA).
`CNC(=O)c1cc(F)c(-c2nc3cc(C)ccn3c2CC2COCCN(C(=O)OC)C2)c(F)c1` (single isomer, unassigned) [A16 (Peak 2), methyl 6-((2-(2,6-difluoro-4-(methylcarbamoyl)phenyl)-7-meth-ylimidazo[1,2-a]pyridin-3-yl)methyl)-1,4-oxazepane-4-carboxylate]: the “P2X3 IC50 column, given as % @ 1 μM” value came to 23% @ 1 μM.
Consider `CNC(=O)c1cc(F)c(-c2nc3cc(C)ccn3c2CC2CCCCN(C(=O)OC)C2)c(F)c1` (single isomer, unassigned) [A17 (Peak 2), methyl 3-((2-(2,6-difluoro-4-(methylcarbamoyl)phenyl)-7-methylimidazo[1,2-a]pyridin-3-yl)methyl)azepane-1-carboxylate], for which the “P2X3 IC50 column, given as % @ 1 μM” value is 21% @ 1 μM.
On to `CNC(=O)c1cc(F)c(-c2nc3cc(C)ccn3c2CC2CCCC(NC(C)=O)C2)c(F)c1` (single isomer, unassigned) [trans-A22 (Peak 2), 4-(3-((3-acetamidocyclohexyl)methyl)-7-methylimidazo[1,2-a]pyridin-2-yl)-3,5-difluoro-N-methylbenzamide], for which the “P2X3 IC50 column, given as % @ 1 μM” value amounted to 17% @ 1 μM.

The same experiment, now with this note: @ 1 μM, antagonist mode, αβ-meATP 3 μM, read-out: P2X3 IC50 column, given as % @ 1 μM.
As for `CNC(=O)c1ccc(-c2nc3cc([S+](C)[O-])ccn3c2C[C@H]2CN(C(=O)OC)CCO2)c(F)c1` (single isomer, unassigned) [A47 (Peak 1)], the inhibition at 1 µM came to 5%.

Staying with this experiment, now noted: HEK293, @ 1 μM, antagonist mode, αβ-meATP 3 μM, read-out: P2X3 IC50 column, given as % @ 1 μM.
Consider `CNC(=O)c1cc(F)c(-c2nc3cc(C)ccn3c2CC2CN(C(=O)OC)CCCO2)c(F)c1` (single isomer, unassigned) [A14 (Peak 1), methyl 2-((2-(2,6-difluoro-4-(methylcarbamoyl)phenyl)-7-methylimidazo[1,2-a]pyridin-3-yl)methyl)-1,4-oxazepane-4-carboxylate], for which the inhibition at 1 µM worked out at 39%.
As to `CNC(=O)c1cc(F)c(-c2nc3cc(C)ccn3c2CC2COCCN(C(=O)OC)C2)c(F)c1` (single isomer, unassigned) [A16 (Peak 1), methyl 6-((2-(2,6-difluoro-4-(methylcarbamoyl)phenyl)-7-meth-ylimidazo[1,2-a]pyridin-3-yl)methyl)-1,4-oxazepane-4-carboxylate], the inhibition at 1 µM is 29%.
Take `CNC(=O)c1cc(F)c(-c2nc3cc(C)ccn3c2CC2CCCCN(C(=O)OC)C2)c(F)c1` (single isomer, unassigned) [A17 (Peak 1), methyl 3-((2-(2,6-difluoro-4-(methylcarbamoyl)phenyl)-7-methylimidazo[1,2-a]pyridin-3-yl)methyl)azepane-1-carboxylate]: the inhibition at 1 µM came to 30%.
For the molecule `CNC(=O)c1cc(F)c(-c2nc3cc(C)ccn3c2CC2CCCC(NC(C)=O)C2)c(F)c1` (single isomer, unassigned) [trans-A22 (Peak 1), 4-(3-((3-acetamidocyclohexyl)methyl)-7-methylimidazo[1,2-a]pyridin-2-yl)-3,5-difluoro-N-methylbenzamide], the inhibition at 1 µM amounted to 22%.

Still in this experiment, the particulars now being: antagonist mode, αβ-meATP 3 μM.
As to `CNC(=O)c1cc(F)c(-c2nc3cc(C)ccn3c2CC2CN(C(=O)OC)CCCO2)c(F)c1` (single isomer, unassigned) [A14 (Peak 2), methyl 2-((2-(2,6-difluoro-4-(methylcarbamoyl)phenyl)-7-methylimidazo[1,2-a]pyridin-3-yl)methyl)-1,4-oxazepane-4-carboxylate], the half-inhibitory concentration (IC50) is below 0.1 µM.
As to `CNC(=O)c1cc(F)c(-c2nc3cc(C)ccn3c2CC2CCCN(C(=O)OC)CC2)c(F)c1` (single isomer, unassigned) [A18 (Peak 1), methyl 4-((2-(2,6-difluoro-4-(methylcarbamoyl)phenyl)-7-methylimidazo[1,2-a]pyridin-3-yl)methyl)azepane-1-carboxylate], the IC50 is below 0.1 µM.
For `CNC(=O)c1cc(F)c(-c2nc3cc(C)ccn3c2CC2CCCN(C(=O)OC)CC2)c(F)c1` (single isomer, unassigned) [A18 (Peak 2), methyl 4-((2-(2,6-difluoro-4-(methylcarbamoyl)phenyl)-7-methylimidazo[1,2-a]pyridin-3-yl)methyl)azepane-1-carboxylate], the IC50 lay in the range of 0.1 to 1 µM.
Regarding `CNC(=O)c1ccc(-c2nc3cc(C(O)C(F)(F)F)ccn3c2C[C@H]2CN(C(=O)OC)CCO2)c(F)c1` (single isomer, unassigned) [A46 (Peak 1)], the IC50 is above 1 µM.
`CNC(=O)c1ccc(-c2nc3cc(C(O)C(F)(F)F)ccn3c2C[C@H]2CN(C(=O)OC)CCO2)c(F)c1` (single isomer, unassigned) [A46 (Peak 2)]: the IC50 was above 1 µM.
Take `CNC(=O)c1ccc(-c2nc3cc([S+](C)[O-])ccn3c2C[C@H]2CN(C(=O)OC)CCO2)c(F)c1` (single isomer, unassigned) [A47 (Peak 2)]: the IC50 was above 1 µM.
Still for that read-out and setting: the result for `CNC(=O)c1cc(F)c(-c2nc3cc(C)ccn3c2CC2CCCC(NC(C)=O)C2)c(F)c1` (single isomer, unassigned) [cis-A22 (Peak 1), 4-(3-((3-acetamidocyclohexyl)methyl)-7-methylimidazo[1,2-a]pyridin-2-yl)-3,5-difluoro-N-methylbenzamide] reads below 0.1 µM.
As to `CNC(=O)c1cc(F)c(-c2nc3cc(C)ccn3c2CC2CCCC(NC(C)=O)C2)c(F)c1` (single isomer, unassigned) [cis-A22 (Peak 2), 4-(3-((3-acetamidocyclohexyl)methyl)-7-methylimidazo[1,2-a]pyridin-2-yl)-3,5-difluoro-N-methylbenzamide], the IC50 was below 0.1 µM.
Take `CNC(=O)c1cc(F)c(-c2nc3cc(C)ccn3c2C[C@H]2CCCN(C(=O)OC)C2)c(F)c1` [(R)-A19, methyl (R)-3-((2-(2,6-difluoro-4-(methylcarbamoyl)phenyl)-7-methylimidazo[1,2-a]pyridin-3-yl)methyl)piperidine-1-carboxylate]: the IC50 is below 0.1 µM.
In the case of `CNC(=O)c1cc(F)c(-c2nc3cc(C)ccn3c2C[C@@H]2CCCN(C(=O)OC)C2)c(F)c1` [(S)-A19, methyl (S)-3-((2-(2,6-difluoro-4-(methylcarbamoyl)phenyl)-7-methylimidazo[1,2-a]pyridin-3-yl)methyl)piperidine-1-carboxylate], the IC50 is below 0.1 µM.
As to `CNC(=O)c1cc(F)c(-c2nc3cc(F)ccn3c2C[C@H]2CN(C(=O)OC)CCO2)c(F)c1` [Compound A1, methyl (S)-2-((2-(2,6-difluoro-4-(methylcarbamoyl)phenyl)-7-fluoroimidazo[1,2-a]pyridin-3-yl)methyl)morpholine-4-carboxylate], the IC50 lay in the range of 0.1 to 1 µM.
As to `CNC(=O)c1cc(F)c(-c2nc3cc(Cl)ccn3c2C[C@H]2CN(C(=O)OC)CCO2)c(F)c1` [Compound A2, methyl (S)-2-((7-chloro-2-(2,6-difluoro-4-(methyl-carb-amoyl)-phenyl)-imidazo[1,2-a]pyridin-3-yl)methyl)morpholine-4-carboxylate], the IC50 is below 0.1 µM.
On to `CNC(=O)c1cc(F)c(-c2nc3cc(OC)ccn3c2C[C@H]2CN(C(=O)OC)CCO2)c(F)c1` [Compound A3, methyl (S)-2-((2-(2,6-difluoro-4-(methylcarbamoyl)phenyl)-7-methoxyimidazo[1,2-a]pyridin-3-yl)methyl)morpholine-4-carboxylate], for which the IC50 was below 0.1 µM.
Turning to `CNC(=O)c1cc(F)c(-c2nc3cc(C(F)F)ccn3c2C[C@H]2CN(C(=O)OC)CCO2)c(F)c1` [Compound A4, methyl (S)-2-((2-(2,6-difluoro-4-(methylcarbamoyl)phenyl)-7-(di-fluoromethyl)imidazo[1,2-a]pyridin-3-yl)methyl)morpholine-4-carboxylate], the half-maximal inhibitory concentration (IC50) was below 0.1 µM.
Turning to `CNC(=O)c1cc(F)c(-c2nc3cc(C(F)(F)F)ccn3c2C[C@H]2CN(C(=O)OC)CCO2)c(F)c1` [Compound A5, methyl (S)-2-((2-(2,6-difluoro-4-(methylcarbamoyl)phenyl)-7-(trifluoromethyl)imidazo[1,2-a]pyridin-3-yl)methyl)morpholine-4-carboxylate], the IC50 fell in the range of 0.1 to 1 µM.
